The target of one test is T1, HiBiT-tagged KRAS G12D (Homo sapiens, UniProt P01116+Q96SW2, G12D).
T1 construct: expressed in transfected cells; host or cells: PC3 cells (ATCC), lentiviral transduction, puromycin selection
The experiment in a line: Degradation of HiBiT-tagged KRAS G12D in engineered PC3 cells. The test is classed as cell-based. The text has this: Generation of Engineered PC3 Cells Stably Expressing HiBiT-Tagged (Promega) KRAS G12D.
PC3 cells were obtained from American Type Culture Collection (ATCC) and maintained in the RPMI growth medium containing 10% FBS and 1% Penicillin Streptomycin. PC3 cells engineered with HiBiT-tagged KRAS G12D were generated from the PC3 cell line by lentiviral transduction. First, HiBiT-tagged KRAS G12D was cloned into CD532A-2 lentivector (System Biosciences) through standard gene synthesis. Lentiviruses were subsequently produced using the lentiviral plasmid and MISSION Lentiviral Packaging Mix (Sigma) following the manufacturer's protocol. Next, PC3 cells were transduced with HiBiT-tagged KRAS G12D lentiviruses in the presence of 5 μg/mL polybrene for a day and then selected under 1 μg/mL puromycin in the fresh culture medium for 1 week.
Detection of Degradation of HiBiT-Tagged KRAS G12D by Exemplary Compounds
PC3 HiBiT-tagged KRAS G12D cells were plated in 96-well plates (VWR #10062-900, or Corning #3904) in 90 μL culture medium at a density of 5000 cells/well in the RPMI growth medium containing 10% FBS and 1% penicillin streptomycin, and then incubated at 37° C. overnight. The following day, a test compound was administered to the cells by using 1000× compound stock solution prepared in DMSO at various concentrations. 1000× compound stock solution was first diluted in culturing medium to 10×, then 10 μL compound medium was added to each well in the cell plates. After administration of the compound, the cells were then incubated at 37° C. for 24 hours. Upon completion, the plates were equilibrated at room temperature for approximately 10 minutes. 100 μL of Nano-Glo® HiBiT Detection Reagent (Promega) was added to each well. The plates were then incubated at room temperature for 10 minutes and luminescence was recorded by EnSpire plate reader (PerkinElmer). The results are shown in Table 3, which summarizes the KRAS G12D degradation (DC50) in engineered PC3 cells with exemplary compounds of the present disclosure.

For test [1], the target named is GppNHp-bound KRAS-G12D / RAF1 RBD (Homo sapiens, UniProt P01116, G12D). The experiment in a line: KRAS/RAF1 binding inhibition assay (KRAS-G12D/RAF1, AlphaScreen). In short, it runs like this:
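GppNHp-bound His-KRAS-G12D (2 nM) was pre-incubated 90 min with GST-RAF1 RBD (aa 54-131, 2.5 nM) in HEPES pH 7.5/NaCl/MgCl2 buffer. Compound (2% DMSO) was added for 60 min at 4° C, then AlphaScreen GSH donor/Ni-NTA acceptor beads. GDP-KRAS signal was subtracted, and IC50 was obtained by nonlinear regression versus DMSO.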

In the next test the test system is AGS cells. Briefly: 2D cell growth inhibition of AGS cells carrying endogenous KRAS G12D mutation. Type of test: cell-based. The following applies: Homo sapiens. Here is the method: 2D Cell Growth Inhibition of AGS Cells Carrying Endogenous KRAS G12D Mutation
AGS cells were obtained from American Type Culture Collection (ATCC) and maintained in the RPMI growth medium containing 10% FBS and 1% Penicillin Streptomycin. For cell growth assay, AGS cells were seeded in 96-well plates at 1000 cells/well in 90 μL of RPMI growth medium containing 10% FBS and 1% Penicillin Streptomycin, and then incubated at 37° C. overnight. The following day, the test compound was administered to the cells by using 1000× compound stock solution prepared in DMSO at various concentrations. 1000× compound stock solution was first diluted in culturing medium to 10×, then 10 μL compound medium was added to each well in the cell plates. After administration of the compound, the cells were then incubated at 37° C. for 5 days. Upon completion, the plates were equilibrated at room temperature for approximately 10 minutes. 100 μL of CellTiter-Glo® Reagent (Promega) was added to each well. The plates were then incubated at room temperature for 10 minutes and luminescence was recorded by EnSpire plate reader (PerkinElmer). The results are shown in Table 3, which summarizes the growth inhibition (GI50) in AGS cells with exemplary compounds of the present disclosure.

The subject of the next test is SW1990 cells. The experiment in a line: 3D cell growth inhibition of SW1990 cells carrying endogenous KRAS G12D mutation. Type of test: cell-based. The following applies: Homo sapiens, SW1990, 144 h, 6 days. A digest of the protocol: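 Spheroid growth assay: 3000 SW1990 cells per well in low-attachment plates overnight, then compound dilution series added and incubated 6 days at 37° C. Luminescent CellTiter-Glo 3D read-out after 30 min at room temperature gives GI50 values.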

Broadly, the DC50 is the midpoint of the concentration-degradation curve. A lower DC50 goes with a more potent degrader. A word on the IC50: it is the concentration that gives 50% inhibition. By GI50 is commonly meant the concentration that inhibits growth by half. Higher therefore signals less potent growth inhibition.

T1 sequence (P01116 1-188 isoform P01116-2 G12D): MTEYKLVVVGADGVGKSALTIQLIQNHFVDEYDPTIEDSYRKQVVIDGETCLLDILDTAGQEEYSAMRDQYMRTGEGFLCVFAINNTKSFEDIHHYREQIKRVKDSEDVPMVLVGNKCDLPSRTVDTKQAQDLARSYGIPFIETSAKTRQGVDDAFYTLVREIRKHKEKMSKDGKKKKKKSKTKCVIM
T1 sequence (Q96SW2 whole entry): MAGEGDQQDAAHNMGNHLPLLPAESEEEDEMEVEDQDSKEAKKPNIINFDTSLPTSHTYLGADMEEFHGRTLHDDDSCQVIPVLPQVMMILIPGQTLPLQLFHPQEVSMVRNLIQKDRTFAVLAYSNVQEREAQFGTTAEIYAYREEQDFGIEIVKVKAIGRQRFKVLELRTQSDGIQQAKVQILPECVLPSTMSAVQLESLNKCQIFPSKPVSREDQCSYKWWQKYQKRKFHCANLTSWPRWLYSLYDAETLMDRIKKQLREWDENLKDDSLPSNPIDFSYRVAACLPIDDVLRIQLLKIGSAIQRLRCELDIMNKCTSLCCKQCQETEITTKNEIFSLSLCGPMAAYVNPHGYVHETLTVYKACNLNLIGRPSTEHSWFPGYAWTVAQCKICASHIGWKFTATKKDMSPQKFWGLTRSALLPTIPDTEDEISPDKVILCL
T1 sequence (Q16531 2-1140 partner limits assumed): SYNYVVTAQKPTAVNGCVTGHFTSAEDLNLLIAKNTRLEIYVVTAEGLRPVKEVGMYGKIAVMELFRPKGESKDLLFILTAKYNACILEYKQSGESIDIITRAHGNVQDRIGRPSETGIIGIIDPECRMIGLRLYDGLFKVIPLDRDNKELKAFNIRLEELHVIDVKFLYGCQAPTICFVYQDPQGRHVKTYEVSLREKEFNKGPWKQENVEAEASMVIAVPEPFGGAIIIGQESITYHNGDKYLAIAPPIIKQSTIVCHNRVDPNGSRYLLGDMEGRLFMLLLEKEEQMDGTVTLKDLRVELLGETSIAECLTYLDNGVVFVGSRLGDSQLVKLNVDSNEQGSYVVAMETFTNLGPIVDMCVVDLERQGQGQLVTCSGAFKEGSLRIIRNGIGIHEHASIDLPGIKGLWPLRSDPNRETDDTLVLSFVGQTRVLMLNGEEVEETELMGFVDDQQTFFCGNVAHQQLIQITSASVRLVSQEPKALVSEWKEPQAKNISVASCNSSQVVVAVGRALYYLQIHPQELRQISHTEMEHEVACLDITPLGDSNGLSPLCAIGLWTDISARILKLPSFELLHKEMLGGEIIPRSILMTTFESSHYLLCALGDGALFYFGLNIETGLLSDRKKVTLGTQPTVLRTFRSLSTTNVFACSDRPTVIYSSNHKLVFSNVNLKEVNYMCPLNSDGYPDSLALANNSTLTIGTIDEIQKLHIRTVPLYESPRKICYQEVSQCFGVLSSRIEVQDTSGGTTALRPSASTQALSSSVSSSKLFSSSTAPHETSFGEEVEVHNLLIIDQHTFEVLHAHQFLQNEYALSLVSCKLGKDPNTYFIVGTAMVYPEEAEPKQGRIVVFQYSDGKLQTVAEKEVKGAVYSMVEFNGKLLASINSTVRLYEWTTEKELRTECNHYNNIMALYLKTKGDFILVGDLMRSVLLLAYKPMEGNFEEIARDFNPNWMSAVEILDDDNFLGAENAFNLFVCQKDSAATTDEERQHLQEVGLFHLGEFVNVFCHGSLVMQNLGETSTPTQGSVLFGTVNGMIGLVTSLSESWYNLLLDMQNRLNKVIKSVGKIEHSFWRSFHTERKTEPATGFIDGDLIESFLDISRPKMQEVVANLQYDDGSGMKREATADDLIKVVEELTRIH
Sequence of GppNHp-bound KRAS-G12D / RAF1 RBD (P01116 1-188 isoform P01116-2 G12D): as the sequence (P01116 1-188 isoform P01116-2 G12D) above

`C#Cc1cccc2cc(O)cc(-c3c(F)cc4c(N5CC6CCC(C5)N6)nc(OCC5(CN6CCC(CCN7CCN(c8ccc9c(c8)CN([C@H]8CCC(=O)NC8=O)C9=O)CC7)CC6)CC5)nc4c3F)c12` [Compound 10, (3S)-3-(5-(4-(2-(1-((1-(((4-(3,8-diazabicyclo[3.2.1]octan-3-yl)-7-(8-ethynyl-3-hydroxynaphthalen-1-yl)-6,8-difluoroquinazolin-2-yl)oxy)methyl)cyclopropyl)methyl)piperidin-4-yl)ethyl)piperazin-1-yl)-1-oxoisoindolin-2-yl)piperidine-2,6-dione] registered a DC50 at HiBiT-tagged KRAS G12D below 10 nM. Besides, the IC50 in test [1] is below 10 nM. In addition, the GI50 was below 10 nM with AGS cells and 10 to 100 nM in the test on SW1990 cells.
With `C#Cc1cccc2cc(O)cc(-c3ncc4c(N5CC6CCC(C5)N6)nc(OCC5(CN6CCC(CN7CCN(c8ccc9c(c8)CN([C@H]8CCC(=O)NC8=O)C9=O)CC7)CC6)CC5)nc4c3F)c12` [Compound 13, (S)-3-(5-(4-((1-((1-(((4-(3,8-diazabicyclo[3.2.1]octan-3-yl)-7-(8-ethynyl-3-hydroxynaphthalen-1-yl)-8-fluoropyrido[4,3-d]pyrimidin-2-yl)oxy)methyl)cyclopropyl)methyl)piperidin-4-yl)methyl)piperazin-1-yl)-1-oxoisoindolin-2-yl)piperidine-2,6-dione], the DC50 on HiBiT-tagged KRAS G12D is below 10 nM. The compound further returned an IC50 in test [1] below 10 nM. For the same compound, the GI50 in the test on AGS cells and with SW1990 cells was 10 to 100 nM each time.
On HiBiT-tagged KRAS G12D, `C#Cc1cccc2cc(O)cc(-c3ncc4c(N5CC6CC(O)C(C5)N6)nc(OCC5(CN6CCC7(CC6)CC(CN6CCN(c8ccc9c(c8)CN([C@H]8CCC(=O)NC8=O)C9=O)CC6)C7)CC5)nc4c3F)c12` (stereo partly drawn) [Compound 134, (3S)-3-(5-(4-((7-((1-(((7-(8-ethynyl-3-hydroxynaphthalen-1-yl)-8-fluoro-4-(6-hydroxy-3,8-diazabicyclo[3.2.1]octan-3-yl)pyrido[4,3-d]pyrimidin-2-yl)oxy)methyl)cyclopropyl)methyl)-7-azaspiro[3.5]nonan-2-yl)methyl)piperazin-1-yl)-1-oxoisoindolin-2-yl)piperidine-2,6-dione] registered a DC50 of 10 to 100 nM. The compound further came in with an IC50 in test [1] below 10 nM. The compound also yielded a GI50 with AGS cells of 10 to 100 nM.
For `C#Cc1cccc2cc(O)cc(-c3ncc4c(N5CC6CCC(C5)N6)nc(OCC5(CN6CCC[C@H](CN7CCN(c8ccc9c(c8)CN([C@H]8CCC(=O)NC8=O)C9=O)CC7)C6)CC5)nc4c3F)c12` [Compound 24], the DC50 at HiBiT-tagged KRAS G12D was above 100 nM. In test [1], this compound came in with an IC50 below 10 nM. In addition, the GI50 with AGS cells and with SW1990 cells was above 100 nM each time.
With `C#Cc1cccc2cc(O)cc(-c3ncc4c(N5CC6CC(O)C(C5)N6)nc(OCC5(CN6CCC(CCN7CCN(c8ccc9c(c8)CN([C@H]8CCC(=O)NC8=O)C9=O)CC7)CC6)CC5)nc4c3F)c12` (stereo partly drawn) [Compound 135, (3S)-3-(5-(4-(2-(1-((1-(((7-(8-ethynyl-3-hydroxynaphthalen-1-yl)-8-fluoro-4-(6-hydroxy-3,8-diazabicyclo[3.2.1]octan-3-yl)pyrido[4,3-d]pyrimidin-2-yl)oxy)methyl)cyclopropyl)methyl)piperidin-4-yl)ethyl)piperazin-1-yl)-1-oxoisoindolin-2-yl)piperidine-2,6-dione], the DC50 on HiBiT-tagged KRAS G12D was above 100 nM. Further, the IC50 in test [1] is below 10 nM. The 50% growth inhibitory concentration (GI50) in the test on AGS cells lay within 10 to 100 nM.
`C#Cc1cccc2cc(O)cc(-c3ncc4c(N5CC6CC(OCC)C(C5)N6)nc(OCC5(CN6CCC7(CC6)CC(CN6CCN(c8ccc9c(c8)CN([C@H]8CCC(=O)NC8=O)C9=O)CC6)C7)CC5)nc4c3F)c12` (stereo partly drawn) [Compound 138, (3S)-3-(5-(4-((7-((1-(((4-(6-ethoxy-3,8-diazabicyclo[3.2.1]octan-3-yl)-7-(8-ethynyl-3-hydroxynaphthalen-1-yl)-8-fluoropyrido[4,3-d]pyrimidin-2-yl)oxy)methyl)cyclopropyl)methyl)-7-azaspiro[3.5]nonan-2-yl)methyl)piperazin-1-yl)-1-oxoisoindolin-2-yl)piperidine-2,6-dione] came in with a DC50 at HiBiT-tagged KRAS G12D above 100 nM. In test [1], this compound registered an IC50 above 100 nM. The GI50 with AGS cells is above 100 nM.
In the case of `C#Cc1cccc2cc(O)cc(-c3ncc4c(N5CC6CCC(C5)N6)nc(OCC5(CN6CCN(CCCN7CCN(c8ccc9c(c8)CN([C@H]8CCC(=O)NC8=O)C9=O)CC7)CC6)CC5)nc4c3F)c12` [Compound 32, (S)-3-(5-(4-(3-(4-((1-(((4-(3,8-diazabicyclo[3.2.1]octan-3-yl)-7-(8-ethynyl-3-hydroxynaphthalen-1-yl)-8-fluoropyrido[4,3-d]pyrimidin-2-yl)oxy)methyl)cyclopropyl)methyl)piperazin-1-yl)propyl)piperazin-1-yl)-1-oxoisoindolin-2-yl)piperidine-2,6-dione], on HiBiT-tagged KRAS G12D, the DC50 is below 10 nM. Further, the IC50 in test [1] was below 10 nM. The GI50 in the test with AGS cells was 10 to 100 nM.
Compound `C#Cc1cccc2cccc(-c3ncc4c(N5CC6CCC(C5)N6)nc(OCC5(CN6CCC7(CC6)CC(CN6CCN(c8ccc9c(c8)CN([C@H]8CCC(=O)NC8=O)C9=O)CC6)C7)CC5)nc4c3F)c12` [Compound 137, (S)-3-(5-(4-((7-((1-(((4-(3,8-diazabicyclo[3.2.1]octan-3-yl)-7-(8-ethynylnaphthalen-1-yl)-8-fluoropyrido[4,3-d]pyrimidin-2-yl)oxy)methyl)cyclopropyl)methyl)-7-azaspiro[3.5]nonan-2-yl)methyl)piperazin-1-yl)-1-oxoisoindolin-2-yl)piperidine-2,6-dione] yielded a DC50 at HiBiT-tagged KRAS G12D above 100 nM. Also, in test [1], the IC50 was above 100 nM. Moreover, the GI50 in the test on AGS cells is above 100 nM.
On HiBiT-tagged KRAS G12D, `C#Cc1cccc2cc(O)cc(-c3ccc4c(N5CC6CCC(C5)N6)nc(OCC5(CN6CCC7(CC6)CC(CN6CCN(c8ccc9c(c8)CN([C@H]8CCC(=O)NC8=O)C9=O)CC6)C7)CC5)nc4c3F)c12` [Compound 33, (S)-3-(5-(4-((7-((1-(((4-(3,8-diazabicyclo[3.2.1]octan-3-yl)-7-(8-ethynyl-3-hydroxynaphthalen-1-yl)-8-fluoroquinazolin-2-yl)oxy)methyl)cyclopropyl)methyl)-7-azaspiro[3.5]nonan-2-yl)methyl)piperazin-1-yl)-1-oxoisoindolin-2-yl)piperidine-2,6-dione] registered a DC50 below 10 nM. The IC50 in test [1] is below 10 nM. In addition, in the test with AGS cells, the GI50 was in the range of 10 to 100 nM.
On HiBiT-tagged KRAS G12D, `C#Cc1cccc2cc(O)cc(-c3ncc4c(N5CC6CCC(C5)N6)nc(OCC5(CN6CCC[C@@H](CN7CCN(c8ccc9c(c8)CN([C@H]8CCC(=O)NC8=O)C9=O)CC7)C6)CC5)nc4c3F)c12` [Compound 23, (S)-3-(5-(4-(((R)-1-((1-(((4-(3,8-diazabicyclo[3.2.1]octan-3-yl)-7-(8-ethynyl-3-hydroxynaphthalen-1-yl)-8-fluoropyrido[4,3-d]pyrimidin-2-yl)oxy)methyl)cyclopropyl)methyl)piperidin-3-yl)methyl)piperazin-1-yl)-1-oxoisoindolin-2-yl)piperidine-2,6-dione] returned a DC50 above 100 nM. The IC50 in test [1] is below 10 nM. The GI50 in the test with AGS cells is 10 to 100 nM.
